Results reported in patent publication US20200068887A1, “TREATMENT FOR REMOVING ECTOPARASITES FROM FISH” (priority 2016, published 2020).
Values joined by “and” are separate entries in the source; they are usually repeats but may differ in a detail not shown here. Equal entries are not always repeated.

How the values were obtained:
farmed Atlantic salmon = experiment: Observation of fish during field treatment; type: in vivo; settings: 20 ppm, 60 minutes, well boat
Protocol: The effectiveness of imidacloprid against pre-adult and adult stages of L. salmonis and Caligus sp. infections on farmed Atlantic salmon was investigated by performing pre- and post-treatment sea lice counts on salmon undergoing a treatment with imidacloprid. This trial was conducted at a commercial salmon farm in Norway. The salmon were pumped onto a well boat and were exposed to 20 ppm imidacloprid for 60 minutes. The average weight of the salmon was 3.5 kg and the average number of salmon per pen was 180,000. 30 fish per pen were assessed for L. salmonis and Caligus sp., and the number of each L. salmonis life stage found was recorded. This was performed within 24 hours prior to treatment, and within 24 hours after treatment.
The numbers of sea lice observed per fish for this trial for each of the four tested pens according to sea lice life cycle state, pre- or post-administration of active are presented in Table 5.

sea lice = experiment: Comparison on isolated sea lice (in vitro bath exposure); settings: 60 min exposure; for % effect / Immobilised / Live: registered approx. 20 h after end of exposure
Protocol: Both pre-adult and adult stages (mobile stages) of both sexes were used, and they were equally distributed among groups. The sea lice were exposed to imidacloprid for 60 minutes, azamethiphos for 60 minutes and deltamethrin for 30 minutes in one litre baths at a range of concentrations (Tables 6, 7 and 8). The sea lice were transferred to clean aerated seawater after treatment. The temperature of the seawater during the experiment was 12° C., but during exposure the temperature raised to approx. 14° C. in regimes exposed for 60 min. (imidacloprid and azamethiphos) and to 13° C. for the regime exposed in 30 minutes (deltamethrin).
The numbers of live and immobilised (including killed) lice in each regime were registered approximately 20 h after end of exposure. Each louse was individually investigated.

salmon louse [1] = experiment: Bath treatment of lice-infected Atlantic salmon, percent lice removed; type: in vivo; settings: 12° C.
Protocol: To determine the concentration- and time-dependence of imidacloprid treatment in vivo, Atlantic salmon (average of 320.9 g) were challenged with imidacloprid in seawater (32.5%0 salinity) at 12° C. The water level in the tank was lowered and aeration was employed during administration of the active. The salmon louse copepodid culture was counted and adjusted to obtain a target level of around 40 copepodids per fish in the challenge tank at each challenge time point.
Salmon lice on the fish were counted using standard methods. Only lice on the fish's outer surface, not including gills and oral/buccal cavities, were investigated.
(§1) Numbers of dissociated lice in tank water or attached to the tank walls were recorded. Lice in the tank water were collected and assessed for ability to attach by suction to a smooth plastic surface immediately after treatment and again after 30-60 minutes (to assess possible revival). Live and viable lice were also collected from the mock-treated control groups for reference and held in revival chambers for the same period of time to assess the system.
The test solutions of the active were prepared (added and homogenised with seawater) and administered to a treatment volume of 40 litres.
Three sea lice-infected fish from the holding tank were randomly gathered and carefully steered into a barrel forming an inner compartment (diameter=34.5-40 cm; height=54 cm) that was submerged in the tank and in which the base has been replaced with a plastic mesh screen with 9 mm^2 square holes.
The fish were transferred to the inner compartment within 3 minutes of each test start. The inner compartment was suspended/submerged in the holding tank pending treatment. Treatments and mock treatments were implemented by draining the inner compartment with fish and transferring it to a barrel containing the test solution. Treatments/mock treatments were performed in static water with aeration/oxygenation. Aeration was adjusted to set the oxygen saturation to 70-100%.
To terminate the treatment, the inner compartment with treated fish was lifted to the surface and drained, then fish were transferred directly and without water to a second basin with a lethal overdose of anaesthetic and left until dead. All lice remaining on these fish and lice that fell off in the anaesthetic bath were recorded.
Exposure times with imidacloprid ranged from 3 to 60 minutes, and doses ranged from 20 ppm to 200 ppm.
Negative control groups at 3- and 60 minutes were duplicated. Superscript numbers denote the total number of lice on the 3 fish in each test.
By way of comparison, fish infected with sea lice from the same sources were treated with azamethiphos at 0.1 mg/l and deltamethrin at 0.2 μ/l for 30 minutes, per the recommended dosage regimes. Treatments were carried out under similar conditions as those treated with imidacloprid. A mock-treatment control was also administered. Each treatment condition was administered in duplicate.
Superscript numbers denote the total number of lice on the 3 fish in each test.

salmon louse [2] = experiment: Revival rates of sea lice after bath treatment; type: in vivo
Protocol: as §1
Remaining lice in the treatment bath were strained through a plankton mesh (2 mm pore size) that was suspended in a water bath with clean seawater. The lice in this collector were transferred to a plastic beaker (1 litre) and then again into a revival tube (5 cm diameter; 10 cm length). Lice that are able to attach to the walls of the treatment tanks or beaker within 3 minutes of completion of each test were scored as viable.

[3] = isolated sea lice, immobilisation approx. 20 h after exposure

## O=[N+]([O-])NC1=NCCN1Cc1ccc(Cl)nc1 [imidacloprid]
Farmed Atlantic salmon
  adverse behaviours of fish throughout treatment: no adverse behaviours seen
Sea lice; imidacloprid 5 ppm
  % effect: 30%
  Immobilised: 3
  Live: 7
Sea lice; imidacloprid 10 ppm
  % effect: 40% and 50%
  Immobilised: 4 and 5
  Live: 6 and 5
Sea lice; imidacloprid 15 ppm
  % effect: 100%
  Immobilised: 10
  Live: 0
Sea lice; imidacloprid 20 ppm
  % effect: 100%
  Immobilised: 10
  Live: 0
Sea lice; imidacloprid 30 ppm
  % effect: 100%
  Immobilised: 10
  Live: 0
Sea lice; [3]
  estimated EC90 value: 14.4 ppm
  estimated ECso value: 7.6 ppm
Salmon louse [1]; 20 ppm, 30 minutes, total 36 lice on 3 fish
  percentage lice removed from fish after treatment relative to total numbers of lice: 63.9^36%
Salmon louse [1]; 20 ppm, 60 minutes, total 27 lice on 3 fish
  percentage lice removed from fish after treatment relative to total numbers of lice: 74.1^27%
Salmon louse [1]; 50 ppm, 30 minutes, total 23 lice on 3 fish
  percentage lice removed from fish after treatment relative to total numbers of lice: 91.3^23%
Salmon louse [1]; 100 ppm, 3 minutes, total 43 lice on 3 fish
  percentage lice removed from fish after treatment relative to total numbers of lice: 7.0^43%
Salmon louse [1]; 100 ppm, 15 minutes, total 38 lice on 3 fish
  percentage lice removed from fish after treatment relative to total numbers of lice: 73.7^38%
Salmon louse [1]; 200 ppm, 5 minutes, total 34 lice on 3 fish
  percentage lice removed from fish after treatment relative to total numbers of lice: 55.9^34%
Salmon louse [1]; 200 ppm, 15 minutes, total 47 lice on 3 fish
  percentage lice removed from fish after treatment relative to total numbers of lice: 91.5^47%
Salmon louse [2]; 20 ppm 30 min, n lice 9
  % active at 30-60 min. post-treatment, Attached lice collected from fish: 11.1%
Salmon louse [2]; 20 ppm 30 min, n lice 23
  % active at 30-60 min. post-treatment, Detached lice collected from tank water: 4.3%
Salmon louse [2]; 20 ppm 60 min, n lice 20
  % active at 30-60 min. post-treatment, Detached lice collected from tank water: 0.0%
Salmon louse [2]; 50 ppm 30 min, n lice 31
  % active at 30-60 min. post-treatment, Detached lice collected from tank water: 0.0%
Salmon louse [2]; 100 ppm 3 min, n lice 3
  % active at 30-60 min. post-treatment, Detached lice collected from tank water: 33.3%
Salmon louse [2]; 100 ppm 15 min, n lice 28
  % active at 30-60 min. post-treatment, Detached lice collected from tank water: 0.0%
Salmon louse [2]; 200 ppm 5 min, n lice 13
  % active at 30-60 min. post-treatment, Attached lice collected from fish: 0.0%
  % active at 30-60 min. post-treatment, Detached lice collected from tank water: 0.0%
Salmon louse [2]; 200 ppm 15 min, n lice 43
  % active at 30-60 min. post-treatment, Detached lice collected from tank water: 0.0%
